2 compounds from patent US9981951B2, “Crystalline and amorphous forms of Olaparib” (Olon S.P.A., priority 2015, dated 2018) can be followed below.

Common to all, as to type: physicochemical
A short description of data set [1]: stability of the solid form (air, moisture, heat).
A short description of another data set: hygroscopicity.
A short description of data set [2]: solubility in various organic solvents and in water. To be noted: compared with crystalline forms A and L of Olaparib.

As for `O=C(c1cc(Cc2n[nH]c(=O)c3ccccc23)ccc1F)N1CCN(C(=O)C2CC2)CC1` [4-[3-(4-cyclopropanecarbonyl-piperazine-1-carbonyl)-4-fluorobenzyl]-2H-phthalazin-2-one], the “stability to air and heat” value in data set [1] (air and heat, long time (30 days)) is “stable to air and heat for a long time (30 days)”. Further, the “stability when exposed to a water-saturated environment” value in data set [1] (water-saturated environment) is given as “maintains its original physicochemical characteristics”.
Regarding `O=C(c1cc(Cc2n[nH]c(=O)c3ccccc23)ccc1F)N1CCN(C(=O)C2CC2)CC1` [amorphous form of Olaparib, 4-[3-(4-cyclopropanecarbonyl-piperazine-1-carbonyl)-4-fluorobenzyl]-2H-phthalazin-2-one], in data set [1] (exposed to the moisture in the air), the “stability if exposed to the moisture in the air” value was “stable”. Besides, the hygroscopicity result in the data set “hygroscopicity” was “not hygroscopic”. Moreover, the “solubility in various organic solvents and in water” value in data set [2] was “better solubility”.
